Test results reported in patent publication US20250034182A1, “PHOSPHOLIPID COMPOUNDS AND METHODS OF MAKING AND USING THE SAME” (priority 2021, published 2025).

Legend:
Type in all cases: cell-based
[1] = tested on: Recombinant Respiratory Syncytial virus strain A2 containing the firefly luciferase reporter (RSV-Fluc) in NHBE cells; test: RSV NHBE FLuc EC50 (Example I); details: human respiratory syncytial virus, 72 h, read-out: RSV NHBE FLuc EC50 (nM) (per Ex. I)
In short: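 NHBE primary cells (passage 2-4) treated with threefold compound dilutions and infected with RSV A2 firefly-luciferase reporter virus at MOI 0.1; 3 days at 37° C, 5% CO2. ONE-Glo luminescence normalized to uninfected and infected DMSO controls; EC50 from non-linear regression, duplicates with two technical repeats.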

[2] = tested on: CAN97-83-GFP1 (A2a) hMPV in H1-HeLa cells; test: hMPV H1-Hela EC50, anti-nucleoprotein ELISA (Example X); details: human metapneumovirus, 96 h, read-out: hMPV H1-Hela EC50 (nM) (per Ex. X)
Method: The human metapneumoavirus (hMPV) anti-viral assay is an anti-nucleoprotein ELISA performed in infected H1-HeLa cells. H1-HeLa cells were maintained in Dulbecco's Modified Eagle's Medium with high glucose (Gibco, Cat #: 11995073) supplemented with 10% FBS (HyClone, Cat #: SH303396.03), 100 units/mL penicillin and 100 μg/mL streptomycin (Gibco, Cat #: 15140122). One day before infection, H1-HeLa cells were seeded into 96-well plates (Corning, Cat. #: 3903) at 0.1 mL/well at 1.5×10^5 cells/mL in Opti-MEM (Gibco, Cat #: 31985070) supplemented with 2% FBS, and were incubated at 37° C. in a 100% humid atmosphere containing 5% (v/v) CO2 overnight. On the next day, CAN97-83-GFP1 (A2a) hMPV was diluted in Opti-MEM medium containing 200 μg/mL CaCl2) and 2 μg/mL TPCK treated trypsin and distributed to the 96-well plates at 0.1 mL/well for an MOI=0.1. Test compounds were distributed to each well using a HP D300e digital dispenser with a final volume of 200 µL/well. After the plates were centrifuged at 700 g for one hour at room temperature, they were maintained in a humidified chamber at 37-C with 5% (v/v) CO2 for 96 hours. After the incubation, the medium was removed, and the plates were fixed with 0.1 mL/well 1% formaldehyde for 15 min at room temperature. The fixative was removed, the plates were air dried for 30-60 minutes, and then permeabilized with 0.1 mL/well 0.5% Triton X-100 in PBS for five minutes at room temperature. Following permeabilization, the plates were washed once with 0.1 mL/well blocking buffer consisting of 10% FBS (HyClone, Cat #: SH303396.03), 5% dry milk (AmericanBio, Cat #: AB10109-01000), and 0.1% Tween 20 (EMD Millipore, Cat #655204) in PBS. The plates were blocked with 0.1 mL/well blocking buffer for 60 minutes at 37° C. afterward. The blocking buffer was removed and 0.05 mL/well human metapneumovirus nucleocapsid antibody (Sigma, Cat #MAB80121) diluted 1:500 in Blocking buffer was added and incubated for two hours at 37-C. The plates were then washed with 0.2 mL/well 0.1% Tween 20/PBS five times, followed by addition of 0.05 mL/well of horseradish peroxidase (HRP) conjugated goat anti-mouse IgG antibody (Fisher Scientific, Cat #501077607) at 1:2000 dilution in the blocking buffer. After one-hour incubation at 37-C, plates were washed five times with 0.2 mL/well 0.1% tween 20 in PBS. The HRP signals were developed by adding 0.1 mL/well of TMB reagent (Thermo Scientific, Cat #: ENN301) and incubating at room until the positive control was apparent. At that point, the reaction was stopped by adding 0.1 mL/well TMB stop solution (SeraCare, Cat #: 5150-0021). The absorbance was measured at 450 nm with an EnVision plate reader. The relative absorbance was calculated by normalizing the absorbance of the compound-treated groups to that of the DMSO-treated groups (set as 100%). EC50 values were calculated using a nonlinear four parameter variable slope regression model.

in vitro = details: human
Method: H1-HeLa cell viability was measured using the CellTiter-Glo® Luminescent Cell Viability Assay kit (Promega, Cat #G7573) according to the manufacturer's protocol. H1-HeLa cells were maintained in Dulbecco's Modified Eagle's Medium with high glucose (Gibco, Cat #: 11995073) supplemented with 10% FBS (HyClone, Cat #: SH303396.03), 100 units/mL penicillin and 100 µg/mL streptomycin (Gibco, Cat #: 15140122). One day before compound treatment, H1-HeLa cells were seeded at […] into 96-well plates (Corning, Cat #3904) in Opti-MEM (Gibco, Cat #: 31985070) supplemented with 2% FBS, and were incubated at 37° C. in a 100% humid atmosphere containing 5% (v/v) CO2. After overnight incubation, the cells were treated with three-fold serial dilutions of the compound. At 96 hours post treatment, CellTiter-Glo reagents were added into each well and luminescence signals were recorded by an EnVision plate reader. The relative cell viability was calculated by normalizing the absorbance of the compound-treated groups to that of the DMSO-treated groups (set as 100% viability) and 10 μM puromycin treated groups (set as 0% viability). The CC50 (compound concentration for reducing 50% of cell viability) was calculated using a nonlinear regression model (four parameters).

| SMILES | EC50 [1] | EC50 [2] | CC50 at 96 h (in vitro) |
| --- | --- | --- | --- |
| CCCCCCCCCCCCCCCCCCOC[C@H](COP(=O)(O)OC[C@@]1(C#N)O[C@@H](c2ccc3c(N)ncnn23)[C@H](O)[C@@H]1O)OCc1cc(F)cc(C#N)c1 [Compound 1, ((2R,3S,4R,5S)-5-(4-aminopyrrolo[2,1-f][1,2,4]triazin-7-yl)-2-cyano-3,4-dihydroxytetrahydrofuran-2-yl)methyl ((R)-2-((3-cyano-5-fluorobenzyl)oxy)-3-(octadecyloxy)propyl) hydrogen phosphate] | 104 nM | 440 nM | 3620 nM |
| CCCCCCCCCCCCCCCCCCOC[C@H](COP(=O)(O)OC[C@@]1(C#N)O[C@@H](c2ccc3c(N)ncnn23)[C@H](O)[C@@H]1O)OCc1ccc(C#N)c(Cl)c1 [Compound 7, ((2R,3S,4R,5S)-5-(4-aminopyrrolo[2,1-f][1,2,4]triazin-7-yl)-2-cyano-3,4-dihydroxytetrahydrofuran-2-yl)methyl ((R)-2-((3-chloro-4-cyanobenzyl)oxy)-3-(octadecyloxy)propyl) hydrogen phosphate] | 113 nM | 358 nM | 3880 nM |
| CCCCCCCCCCCCCCCCCCOC[C@H](COP(=O)(O)OC[C@@]1(C#N)O[C@@H](c2ccc3c(N)ncnn23)[C@H](O)[C@@H]1O)Oc1ccc(C#N)c(OC(C)C)c1 [Compound 23, ((2R,3S,4R,5S)-5-(4-aminopyrrolo[2,1-f][1,2,4]triazin-7-yl)-2-cyano-3,4-dihydroxytetrahydrofuran-2-yl)methyl ((R)-2-(4-cyano-3-isopropoxyphenoxy)-3-(octadecyloxy)propyl) hydrogen phosphate] | 16 nM | 156 nM | 10800 nM |
| CCCCCCCCCCCCCCCCCCC[C@H](COP(=O)(O)OC[C@@]1(C#N)O[C@@H](c2ccc3c(N)ncnn23)[C@H](O)[C@@H]1O)OCc1cc(F)cc(C#N)c1 [Compound 25, ((2R,3S,4R,5S)-5-(4-aminopyrrolo[2,1-f][1,2,4]triazin-7-yl)-2-cyano-3,4-dihydroxytetrahydrofuran-2-yl)methyl ((R)-2-((3-cyano-5-fluorobenzyl)oxy)henicosyl) hydrogen phosphate] | 98 nM | 1280 nM | 8490 nM |
| CCCCCCCCCCCCCCCCCCOC[C@@H](COP(=O)(O)OC[C@@]1(C#N)O[C@@H](c2ccc3c(N)ncnn23)[C@H](O)[C@@H]1O)Oc1ccc(C#N)nc1 [Compound 72, ((2R,3S,4R,5S)-5-(4-aminopyrrolo[2,1-f][1,2,4]triazin-7-yl)-2-cyano-3,4-dihydroxytetrahydrofuran-2-yl)methyl ((S)-2-((6-cyanopyridin-3-yl)oxy)-3-(octadecyloxy)propyl) hydrogen phosphate] | – | 70 nM | 5100 nM |
| CCCCCCCCCCCCCCCCC[C@H](COP(=O)(O)OC[C@@]1(C#N)O[C@@H](c2ccc3c(N)ncnn23)[C@H](O)[C@@H]1O)OCc1cc(Cl)cc(C#N)c1 [Compound 76, ((2R,3S,4R)-5-(4-aminopyrrolo[2,1-f][1,2,4]triazin-7-yl)-2-cyano-3,4-dihydroxytetrahydrofuran-2-yl)methyl ((R)-2-((3-chloro-5-cyanobenzyl)oxy)nonadecyl) hydrogen phosphate] | – | 517 nM | 6390 nM |
| CCCCCCCCCCCCCCCC[C@@H](COP(=O)(O)OC[C@@]1(C#N)O[C@@H](c2ccc3c(N)ncnn23)[C@H](O)[C@@H]1O)OCc1cc(F)cc(C#N)c1 [Compound 79, ((2R,3S,4R,5S)-5-(4-aminopyrrolo[2,1-f][1,2,4]triazin-7-yl)-2-cyano-3,4-dihydroxytetrahydrofuran-2-yl)methyl ((S)-2-((3-cyano-5-fluorobenzyl)oxy)octadecyl) hydrogen phosphate] | – | 1610 nM | 6740 nM |
| CCCCCCCCCCCCCCC[C@H](COP(=O)(O)OC[C@@]1(C#N)O[C@@H](c2ccc3c(N)ncnn23)[C@H](O)[C@@H]1O)OCc1cc(F)cc(C#N)c1 [Compound 80, ((2R,3S,4R,5S)-5-(4-aminopyrrolo[2,1-f][1,2,4]triazin-7-yl)-2-cyano-3,4-dihydroxytetrahydrofuran-2-yl)methyl ((R)-2-((3-cyano-5-fluorobenzyl)oxy)heptadecyl) hydrogen phosphate] | – | 668 nM | 7080 nM |
| CCCCCCCCCCCCCCCCCC[C@H](COP(=O)(O)OC[C@@]1(C#N)O[C@@H](c2ccc3c(N)ncnn23)[C@H](O)[C@@H]1O)OCc1cc(Cl)cc(C#N)c1 [Compound 81, ((2R,3S,4R,5S)-5-(4-aminopyrrolo[2,1-f][1,2,4]triazin-7-yl)-2-cyano-3,4-dihydroxytetrahydrofuran-2-yl)methyl ((R)-2-((3-chloro-5-cyanobenzyl)oxy)icosyl) hydrogen phosphate] | – | 453 nM | 4520 nM |
| CCCCCCCCCCCCCCCCCCC[C@H](COP(=O)(O)OC[C@@]1(C#N)O[C@@H](c2ccc3c(N)ncnn23)[C@H](O)[C@@H]1O)OCc1cc(Cl)cc(C#N)c1 [Compound 82, ((2R,3S,4R,5S)-5-(4-aminopyrrolo[2,1-f][1,2,4]triazin-7-yl)-2-cyano-3,4-dihydroxytetrahydrofuran-2-yl)methyl ((R)-2-((3-chloro-5-cyanobenzyl)oxy)henicosyl) hydrogen phosphate] | – | 1120 nM | 4030 nM |
| CCCCCCCCCCCCCCCCCC[C@H](COP(=O)(O)OC[C@@]1(C#N)O[C@@H](c2ccc3c(N)ncnn23)[C@H](O)[C@@H]1O)OCc1cc(F)cc(C#N)c1 [Compound 84, ((2R,3S,4R,5S)-5-(4-aminopyrrolo[2,1-f][1,2,4]triazin-7-yl)-2-cyano-3,4-dihydroxytetrahydrofuran-2-yl)methyl ((R)-2-((3-cyano-5-fluorobenzyl)oxy)icosyl) hydrogen phosphate] | – | 367 nM | 1820 nM |
| CCCCCCCCCCCCCCCCOC[C@@H](COP(=O)(O)OC[C@@]1(C#N)O[C@@H](c2ccc3c(N)ncnn23)[C@H](O)[C@@H]1O)OCc1cc(F)cc(C#N)c1 [Compound 88, ((2R,3S,4R,5S)-5-(4-aminopyrrolo[2,1-f][1,2,4]triazin-7-yl)-2-cyano-3,4-dihydroxytetrahydrofuran-2-yl)methyl ((S)-2-((3-cyano-5-fluorobenzyl)oxy)-3-(hexadecyloxy)propyl) hydrogen phosphate] | – | 348 nM | 2210 nM |
